Where two headings read alike, the source gives them in different places.
Assays:
Test in all cases: Glasshouse assay for herbicidal activity (pre- and post-emergence), percentage phytotoxicity
Format in all cases: in vivo
[1] = test system: Alopecurus myosuroides (ALOMY); settings: Alopecurus myosuroides
Protocol: (§1) Test—Glasshouse Assay for Herbicidal Activity
(§2) Seeds of a variety of monocotyledonous and dicotyledonous test plants are sown in standard soil in pots. The plants are cultivated for one day (for pre-emergence (PRE)) or for about 12 days (for post-emergence (POST)) under controlled conditions in a glasshouse (warm climate species at 24/18° C., cool climate species at 20/16° C., both at day/night; 16 hours light; 65% humidity).
(§3) The test plants are then grown on, in a glasshouse (greenhouse) under controlled conditions (warm climate species at 24/18° C., cool climate species at 20/16° C., both at day/night; 16 hours light; 65% humidity) and are watered twice daily. 15 days after application of the test herbicide (15 DAA) (for post-emergence), and 20 days after application of the test herbicide (20 DAA) (for pre-emergence), the test plants are evaluated visually, and an assessed percentage phytotoxicity score is given for each herbicidal application on each plant species (with 100%=total damage to plant; 0%=no damage to plant).
(§4) The plant species tested are as follows: Alopecurus myosuroides (ALOMY), Avena fatua (AVEFA), Lolium perenne (LOLPE), Echinochloa crus-galli (ECHCG).

[2] = test system: Echinochloa crus-galli (ECHCG); settings: Echinochloa crus-galli
Protocol: as §1, §2, §3, §4

[3] = test system: Lolium perenne (LOLPE); settings: Lolium perenne
Protocol: as §1, §2, §3, §4

[4] = test system: Avena fatua (AVEFA); settings: Avena fatua
Protocol: as §1, §2, §3, §4

[5] = post-emergence, 360 h, Rate 250 g/ha, post-emergence, assessed visually 15 DAA, 100%=total damage, 0%=no damage, read-out: Post-emergence herbicidal activity (percentage phytotoxicity) ALOMY POST
[6] = pre-emergence, 480 h, Rate 250 g/ha, pre-emergence, assessed visually 20 DAA, 100%=total damage, 0%=no damage, read-out: Pre-emergence herbicidal activity (percentage phytotoxicity) ALOMY PRE
[7] = post-emergence, 360 h, Rate 250 g/ha, post-emergence, assessed visually 15 DAA, 100%=total damage, 0%=no damage, read-out: Post-emergence herbicidal activity (percentage phytotoxicity) ECHCG POST
[8] = pre-emergence, 480 h, Rate 250 g/ha, pre-emergence, assessed visually 20 DAA, 100%=total damage, 0%=no damage, read-out: Pre-emergence herbicidal activity (percentage phytotoxicity) ECHCG PRE
[9] = post-emergence, 360 h, Rate 250 g/ha, post-emergence, assessed visually 15 DAA, 100%=total damage, 0%=no damage, read-out: Post-emergence herbicidal activity (percentage phytotoxicity) LOLPE POST
[10] = pre-emergence, 480 h, Rate 250 g/ha, pre-emergence, assessed visually 20 DAA, 100%=total damage, 0%=no damage, read-out: Pre-emergence herbicidal activity (percentage phytotoxicity) LOLPE PRE
[11] = post-emergence, 360 h, Rate 250 g/ha, post-emergence, assessed visually 15 DAA, 100%=total damage, 0%=no damage, read-out: Post-emergence herbicidal activity (percentage phytotoxicity) AVEFA POST
[12] = pre-emergence, 480 h, Rate 250 g/ha, pre-emergence, assessed visually 20 DAA, 100%=total damage, 0%=no damage, read-out: Pre-emergence herbicidal activity (percentage phytotoxicity) AVEFA PRE

Row | SMILES | pest or weed control at 250 g/ha [1, 5] [%] | pest or weed control at 250 g/ha [1, 6] [%] | pest or weed control at 250 g/ha [2, 7] [%] | pest or weed control at 250 g/ha [2, 8] [%] | pest or weed control at 250 g/ha [3, 9] [%] | pest or weed control at 250 g/ha [3, 10] [%] | pest or weed control at 250 g/ha [4, 11] [%] | pest or weed control at 250 g/ha [4, 12] [%] | pest or weed control at 250 g/ha ([1]; post-emergence, 360 h, post-emergence, 250 g/ha, 15 DAA, visual score (100%=total damage; 0%=no damage), read-out: ALOMY POST herbicidal activity (percentage phytotoxicity)) [%] | pest or weed control at 250 g/ha ([1]; pre-emergence, 480 h, pre-emergence, 250 g/ha, 20 DAA, visual score (100%=total damage; 0%=no damage), read-out: ALOMY PRE herbicidal activity (percentage phytotoxicity)) [%] | pest or weed control at 250 g/ha ([2]; post-emergence, 360 h, post-emergence, 250 g/ha, 15 DAA, visual score (100%=total damage; 0%=no damage), read-out: ECHCG POST herbicidal activity (percentage phytotoxicity)) [%] | pest or weed control at 250 g/ha ([2]; pre-emergence, 480 h, pre-emergence, 250 g/ha, 20 DAA, visual score (100%=total damage; 0%=no damage), read-out: ECHCG PRE herbicidal activity (percentage phytotoxicity)) [%] | pest or weed control at 250 g/ha ([3]; post-emergence, 360 h, post-emergence, 250 g/ha, 15 DAA, visual score (100%=total damage; 0%=no damage), read-out: LOLPE POST herbicidal activity (percentage phytotoxicity)) [%] | pest or weed control at 250 g/ha ([3]; pre-emergence, 480 h, pre-emergence, 250 g/ha, 20 DAA, visual score (100%=total damage; 0%=no damage), read-out: LOLPE PRE herbicidal activity (percentage phytotoxicity)) [%] | pest or weed control at 250 g/ha ([4]; post-emergence, 360 h, post-emergence, 250 g/ha, 15 DAA, visual score (100%=total damage; 0%=no damage), read-out: AVEFA POST herbicidal activity (percentage phytotoxicity)) [%] | pest or weed control at 250 g/ha ([4]; pre-emergence, 480 h, pre-emergence, 250 g/ha, 20 DAA, visual score (100%=total damage; 0%=no damage), read-out: AVEFA PRE herbicidal activity (percentage phytotoxicity)) [%]
1 | C#CC(C)(C)NC(=O)CC1CC(=O)C(c2c(C)cc(C#CC)cc2C)C1=O (single isomer, unassigned) [Compound A56] | 100 | 100 | 100 | 100 | 90 | 90 | 100 | 90 | – | – | – | – | – | – | – | –
2 | C#CC(C)N(C)C(=O)CC1CC(=O)C(c2c(C)cc(C)cc2C)C1=O (single isomer, unassigned) [Compound A183] | – | – | – | – | – | – | – | – | 70 | 50 | 80 | 80 | 70 | 90 | 70 | 0
3 | CC#Cc1cc(C)c(C2C(=O)CC(CC(=O)NC(C)C)C2=O)c(C)c1 (centres unmarked) [Compound A8, 2-[3-(2,6-dimethyl-4-prop-1-ynyl-phenyl)-2,4-dioxo-cyclopentyl]-N-isopropyl-acetamide] | 100 | 100 | 100 | 100 | 100 | 100 | 100 | 100 | – | – | – | – | – | – | – | –
4 | C#Cc1cc(C)c(C2C(=O)CC(CC(=O)NC(C)CC)C2=O)c(C)c1 (centres unmarked) [Compound A9, 2-[3-(4-ethynyl-2,6-dimethyl-phenyl)-2,4-dioxo-cyclopentyl]-N-sec-butyl-acetamide] | 80 | 90 | 90 | 100 | 80 | 90 | 100 | 90 | – | – | – | – | – | – | – | –
5 | C#CCNC(=O)CC1CC(=O)C(c2c(C)cc(C)cc2C)C1=O (centres unmarked) [Compound A10] | 80 | 70 | 90 | 90 | 90 | 90 | 60 | 70 | – | – | – | – | – | – | – | –
6 | C#CC(C)(C)NC(=O)CC1CC(=O)C(c2c(C)cc(C)cc2C)C1=O (centres unmarked) [Compound A11] | 80 | 70 | 80 | 70 | 70 | 70 | 70 | 50 | – | – | – | – | – | – | – | –
7 | Cc1cc(C)c(C2C(=O)CC(CC(=O)NCC3CCOCC3)C2=O)c(C)c1 (centres unmarked) [Compound A13] | 80 | 50 | 80 | 100 | 80 | 70 | 70 | 40 | – | – | – | – | – | – | – | –
8 | Cc1cc(C)c(C2C(=O)CC(CC(=O)NC3CCOCC3)C2=O)c(C)c1 (centres unmarked) [Compound A17] | 80 | 70 | 80 | 70 | 80 | 70 | 70 | 40 | – | – | – | – | – | – | – | –
9 | Cc1ccc(CNC(=O)CC2CC(=O)C(c3c(C)cc(C)cc3C)C2=O)nc1 (centres unmarked) [Compound A23] | 80 | 80 | 90 | 100 | 80 | 70 | 70 | 60 | – | – | – | – | – | – | – | –
10 | Cc1cc(C)c(C2C(=O)CC(CC(=O)N3CCOCC3)C2=O)c(C)c1 (centres unmarked) [Compound A24] | 90 | 80 | 100 | 100 | 100 | 90 | 90 | 90 | – | – | – | – | – | – | – | –
11 | C#CCNC(=O)CC1CC(=O)C(c2c(C)cc(C#CC)cc2C)C1=O (centres unmarked) [Compound A28] | 100 | 100 | 100 | 90 | 100 | 90 | 100 | 100 | – | – | – | – | – | – | – | –
12 | CC#Cc1cc(C)c(C2C(=O)CC(CC(=O)NCCCC)C2=O)c(C)c1 (centres unmarked) [Compound A29] | 100 | 100 | 100 | 100 | 100 | 100 | 100 | 90 | – | – | – | – | – | – | – | –
13 | CC#Cc1cc(C)c(C2C(=O)CC(CC(=O)NCC(C)C)C2=O)c(C)c1 (centres unmarked) [Compound A30] | 100 | 100 | 100 | 100 | 100 | 100 | 100 | 100 | – | – | – | – | – | – | – | –
14 | CC#Cc1cc(C)c(C2C(=O)CC(CC(=O)NC(C)(C)C)C2=O)c(C)c1 (centres unmarked) [Compound A31] | 100 | 100 | 100 | 100 | 100 | 100 | 100 | 90 | – | – | – | – | – | – | – | –
15 | CC#Cc1cc(C)c(C2C(=O)CC(CC(=O)NC3CC3)C2=O)c(C)c1 (centres unmarked) [Compound A32] | 100 | 70 | 100 | 100 | 100 | 90 | 100 | 80 | – | – | – | – | – | – | – | –
16 | CC#Cc1cc(C)c(C2C(=O)CC(CC(=O)NC(C)CC)C2=O)c(C)c1 (centres unmarked) [Compound A33] | 100 | 100 | 100 | 100 | 100 | 100 | 100 | 100 | – | – | – | – | – | – | – | –

Reference: patent publication US10206394B2, “Herbicidal compounds” (Syngenta Participations AG, priority 2014, dated 2019)
